Experimental data as given in patent publication US5185320A, “O^56 -alkyl derivatives of aglycone and pseudo aglycones of teicoplanin” (Gruppo Lepetit S.p.A., priority 1989, dated 1993).

Key:
Type in all cases: cell-based
Details in all cases: inoculum about 10^4 CFU/ml, 18-24 h at 37° C.
[1] = system: Staph. aureus Tour L 165; assay: MIC, standard dilution test, Staph. aureus Tour L 165
Protocol: (§1) ISOSENSITEST broth (Oxoid) and TOLLD-HEWITT broth (Difco) are used for growing staphylococci and streptococci, respectively. Broth cultures are diluted so that the final inoculum is about 10^4 colony forming units/ml (CFU/ml).

[2] = system: Staph. haemolyticus L 602; assay: MIC, standard dilution test, Staph. haemolyticus L 602
Protocol: as §1

[3] = system: Staph. epidermidis ATCC 12228; assay: MIC, standard dilution test, Staph. epidermidis ATCC 12228
Protocol: as §1

[4] = system: Strep. pyogenes C 203; assay: MIC, standard dilution test, Strep. pyogenes C 203
Protocol: as §1

[5] = system: Strep. pneumoniae UC41; assay: MIC, standard dilution test, Strep. pneumoniae UC41
Protocol: as §1

[6] = system: Strep. faecalis ATCC 7080; assay: MIC, standard dilution test, Strep. faecalis ATCC 7080
Protocol: as §1

[7] = system: Strep. mitis L 796; assay: MIC, standard dilution test, Strep. mitis L 796
Protocol: as §1

[8] = system: Neisseria gonorrhoeae ISM68/126; assay: MIC, standard dilution test, Neisseria gonorrhoeae ISM68/126
Protocol: as §1

[9] = system: Haemophilus influenzae ATCC 19418; assay: MIC, standard dilution test, Haemophilus influenzae ATCC 19418
Protocol: as §1

[10] = system: Escherichia coli SKF 12140; assay: MIC, standard dilution test, Escherichia coli SKF 12140
Protocol: as §1

[11] = system: Proteus vulgaris ATCC 881; assay: MIC, standard dilution test, Proteus vulgaris ATCC 881
Protocol: as §1

[12] = system: Pseudomonas aeruginosa ATCC 10145; assay: MIC, standard dilution test, Pseudomonas aeruginosa ATCC 10145
Protocol: as §1

Row | Compound | Minimal inhibitory concentration (MIC) [1] | Minimal inhibitory concentration (MIC) [2] | Minimal inhibitory concentration (MIC) [3] | Minimal inhibitory concentration (MIC) [4] | Minimal inhibitory concentration (MIC) [5] | Minimal inhibitory concentration (MIC) [6] | Minimal inhibitory concentration (MIC) [7] | Minimal inhibitory concentration (MIC) [8] | Minimal inhibitory concentration (MIC) [9] | Minimal inhibitory concentration (MIC) [10] | Minimal inhibitory concentration (MIC) [11] | Minimal inhibitory concentration (MIC) [12]
1 | COC(=O)C1NC(=O)C2NC(=O)C(NC(=O)C3NC(=O)C4NC(=O)C(Cc5ccc(c(Cl)c5)Oc5cc3cc(c5OCCCCN)Oc3ccc(cc3Cl)C2O[C@@H]2O[C@H](CO)[C@@H](O)[C@H](O)[C@H]2NC(C)=O)NC(=O)C(N)c2ccc(O)c(c2)Oc2cc(O)cc4c2)c2ccc(O)c(c2)-c2c(O[C@H]3O[C@H](CO)[C@@H](O)[C@H](O)[C@@H]3O)cc(O)cc21 (stereo partly drawn) [Compound 10, O^56-(4-aminobutyl)teicoplanin pseudoaglycone methyl ester] | 2 | 16 | 4 | 0.125 | 1 | 4 | 1 | > 128 | > 128 | > 128 | > 128 | > 128
2 | COC(=O)C1NC(=O)C2NC(=O)C(NC(=O)C3NC(=O)C4NC(=O)C(Cc5ccc(c(Cl)c5)Oc5cc3cc(c5OCCBr)Oc3ccc(cc3Cl)C2O)NC(=O)C(N)c2ccc(O)c(c2)Oc2cc(O)cc4c2)c2ccc(O)c(c2)-c2c(O)cc(O)cc21 (stereo not drawn) [Compound 11, O^56-(2-bromoethyl)deglucoteicoplanin methyl ester] | 0.5 | 2 | 0.125 | 0.125 | 0.25 | 1 | 0.25 | > 128 | 64 | 64 | > 128 | > 128
3 | N#CCOC(=O)C1NC(=O)C2NC(=O)C(NC(=O)C3NC(=O)C4NC(=O)C(Cc5ccc(c(Cl)c5)Oc5cc3cc(c5OCC#N)Oc3ccc(cc3Cl)C2O)NC(=O)C(N)c2ccc(O)c(c2)Oc2cc(O)cc4c2)c2ccc(O)c(c2)-c2c(O)cc(O)cc21.O=C(O)C(F)(F)F (stereo not drawn) [Compound 12, O^56 -(cyanomethyl)deglucoteicoplanin cyanomethyl ester trifluoroacetate salt] | 0.125 | 1 | 0.063 | 0.125 | 0.125 | 1 | 0.125 | > 128 | 64 | > 128 | > 128 | > 128
4 | COC(=O)C1NC(=O)C2NC(=O)C(NC(=O)C3NC(=O)C4NC(=O)C(Cc5ccc(c(Cl)c5)Oc5cc3cc(c5OCCN3CCCC3)Oc3ccc(cc3Cl)C2O)NC(=O)C(N)c2ccc(O)c(c2)Oc2cc(O)cc4c2)c2ccc(O)c(c2)-c2c(O)cc(O)cc21.Cl.Cl (stereo not drawn) [Compound 13, O^56-[2-(1-pyrrolidinyl)ethyl]deglucoteicoplanin methyl ester dihydrochloride] | 0.125 | 0.5 | 0.25 | 0.125 | 0.25 | 0.125 | 0.125 | 32 | 64 | 8 | 128 | 64
5 | COC(=O)C1NC(=O)C2NC(=O)C(NC(=O)C3NC(=O)C4NC(=O)C(Cc5ccc(c(Cl)c5)Oc5cc3cc(c5OCCN3CCOCC3)Oc3ccc(cc3Cl)C2O)NC(=O)C(N)c2ccc(O)c(c2)Oc2cc(O)cc4c2)c2ccc(O)c(c2)-c2c(O)cc(O)cc21.Cl.Cl (stereo not drawn) [Compound 14, O^56-[2-(1-morpholinyl)ethyl]deglucoteicoplanin methyl ester dihydrochloride] | 0.25 | 2 | 0.125 | 0.25 | 0.125 | 0.125 | 0.125 | 64 | 64 | 32 | > 128 | > 128
6 | NCCNCCOc1c2cc3cc1Oc1ccc(cc1Cl)C(O)C1NC(=O)C(NC(=O)C3NC(=O)C3NC(=O)C(Cc4ccc(c(Cl)c4)O2)NC(=O)C(N)c2ccc(O)c(c2)Oc2cc(O)cc3c2)c2ccc(O)c(c2)-c2c(O)cc(O)cc2C(C(=O)NCCN)NC1=O (stereo not drawn) [Compound 15, O^56-[2-(1-ethylendiaminyl)ethyl]deglucoteicoplanin ethylenediamine amide] | 0.125 | 0.25 | 0.125 | 0.063 | 0.125 | 0.25 | 0.25 | 64 | 128 | 8 | 64 | 64
7 | NC1C(=O)NC2Cc3ccc(c(Cl)c3)Oc3cc4cc(c3OC3CCOC3=O)Oc3ccc(cc3Cl)C(O)C3NC(=O)C(NC(=O)C4NC(=O)C(NC2=O)c2cc(O)cc(c2)Oc2cc1ccc2O)c1ccc(O)c(c1)-c1c(O)cc(O)cc1C(C(=O)O)NC3=O (stereo not drawn) [Compound 16, O^56-(tetrahydro-2-oxo-3-furanyl)deglucoteicoplanin] | 0.125 | 4 | 0.25 | 0.5 | 0.25 | 0.5 | 0.5 | 64 | > 128 | > 128 | > 128 | > 128
8 | Cl.NC1C(=O)NC2Cc3ccc(c(Cl)c3)Oc3cc4cc(c3OCCBr)Oc3ccc(cc3Cl)C(O)C3NC(=O)C(NC(=O)C4NC(=O)C(NC2=O)c2cc(O)cc(c2)Oc2cc1ccc2O)c1ccc(O)c(c1)-c1c(O)cc(O)cc1C(C(=O)OCCBr)NC3=O (stereo not drawn) [Compound 17, O^56-(2-bromoethyl)deglucoteicoplanin 2-bromoethyl ester hydrochloride salt] | 0.25 | 4 | 0.125 | 0.125 | 0.5 | 0.125 | 0.25 | > 128 | > 128 | > 128 | > 128 | > 128
